The values that follow come from article PMC4058456, “Jacobsen Catalyst as a Cytochrome P450 Biomimetic Model for the Metabolism of Monensin A” (BioMed Research International, 2014).

In brackets after ≈: the same amount, converted by molar mass. Where two headings read alike, the source gives them in different places. Marks after values point to notes of the source that are not given here.

For series [1], the system named is Staphylococcus aureus ATCC 25923. The series is described as follows: Antimicrobial bioassay, minimal bactericidal concentration (MTT). The series is classed as cell-based. The following applies: for MBC: Staphylococcus aureus. How it is done: (§1) The bioassays were carried out using the strains Staphylococcus aureus ATCC 25923, Staphylococcus aureus ATCC 43300 (MRSA-methicillin resistant), Staphylococcus epidermidis ATCC 14990, Pseudomonas aeruginosa ATCC 27853, and Escherichia coli ATCC 25922 all acquired from the American Type Culture Collection (ATCC). Approximately 5 × 10^5 microorganisms·mL^−1 were incubated in Muller Hinton broth in 96-well microtiter plates containing the samples to be tested. The compounds (monensin A, metabolite 1, and metabolite 2) were dissolved in dimethylsulfoxide (DMSO) and diluted into the medium to give 100, 50, 25, 12.5, 6.3, 3.1, 1.6, 0.8, 0.4, 0.2, 0.1, and 0.05 μg·mL^−1, as their final concentrations. The plates were incubated at 37°C and the bioassays were performed in triplicate. The cell death was determined by a MTT colorimetric method which was described by Andrews and Furtado et al.. The DMSO solution and chloramphenicol were used as controls of the experiment.

In series [2] the test system is Pseudomonas aeruginosa ATCC 27853. The series is described as above. The format is cell-based. The protocol: as §1
The subject of series [3] is Staphylococcus epidermidis ATCC 14990. The series is described as above. The format is cell-based. The protocol: as §1
Series [4] relates to Escherichia coli ATCC 25922. The description is as above. The series is classed as cell-based. How it is done:
as §1

Series [5] has as its system Staphylococcus aureus ATCC 43300 (MRSA-methicillin resistant). Described as above. The format is cell-based. The following applies: for MBC: Staphylococcus aureus, read-out: Minimal bactericidal concentration. The protocol:
as §1

Series [6] relates to rat liver mitochondria. The series is described as follows: Mitochondrial membrane potential (safranin-o fluorescence). The conditions noted are these: 1 μM. The protocol: (§2) Monensin A was diluted in ethanol to concentrations 0.01, 0.1, and 1 μM. All assays were performed in three replicates. Rat liver mitochondria were isolated by standard differential centrifugation according to Pereira et al. and the mitochondrial protein content was determined by the biuret method.
Mitochondrial Membrane potential (ΔΨ) was monitored spectrofluorimetrically using 10 μM safranin-o as a probe in a F-4500 spectrofluorometer (Hitachi) with the 495/586 nm excitation/emission wavelength pair. The mitochondria (1.0 mg protein·mL^−1) were incubated at 30°C in 2 mL of the standard reaction medium containing 125 mM sucrose, 65 mM KCl, and 10 mM HEPES-KOH, and CCCP (carbonyl cyanide 3-chlorophenylhydrazone) was added at the end of each experiment for the complete dissipation of the membrane potential.

Series [7] concerns rat liver mitochondria. In words: Mitochondrial ROS production (H2DCFDA). The conditions noted are these: 1 μM. The protocol:
as §2
Mitochondrial reactive oxygen species (ROS) production was monitored spectrofluorimetrically with 2′,7′-dichlorodihydrofluorescein diacetate (H2DCFDA) with the 503/529 nm excitation/emission wavelength pair, both using the standard reaction medium.

Series [8] concerns rat liver mitochondria. In words: Mitochondrial respiration (oxygen consumption, Clark-type electrode). The conditions noted are these: 1 μM. The protocol: as §2
Mitochondrial respiration was monitored polarographically with an oxygraph (Hansatech) equipped with a Clark-type oxygen electrode. The mitochondria (1.0 mg protein) were incubated at 30°C in 1 mL of the respiratory medium containing 125 mM sucrose, 65 mM KCl, 10 mM HEPES-KOH, 0.5 mM EGTA, and 10 mM K2HPO4; pH 7.2. 5 mM glutamate and malate were used as the oxidizable substrates for complex I; and mitochondrial oxidative phosphorylation (state 3) was initiated using 400 nmol ADP.

For series [9], the system named is rat liver mitochondria. In words: Mitochondrial swelling (apparent absorbance at 540 nm). The following applies: 1 μM. How it is done:
as §2
Mitochondrial swelling was estimated from the decrease in apparent absorbance at 540 nm performed with a Model DU-70 spectrophotometer (Beckman). The mitochondria were incubated using 30°C in 2 mL of the standard reaction medium.

For another series, the system named is Bacillus subtilis. Also noted: method as in PMID 17702333. The conditions noted are these: bioautography against Bacillus subtilis; cited from earlier work.
The next series deals with Streptococcus faecalis. Also noted: method as in PMID 17702333. The conditions noted are these: turbidimetric assay against Streptococcus faecalis; cited from earlier work.
Series [10] concerns S. epidermidis ATCC 35984. Details: method as in PMID 23509771. The following applies: cited from earlier work.
Series [11] is described as follows: Biomimetic oxidation of monensin A catalysed by Jacobsen catalyst (CYP450 model), HPLC-ESI-MS. The format is in vitro ADME. The following applies: catalyst:oxidant:monensin A 1:20:20, CH2Cl2, room temperature, 24 h. How it is done: Based on the previous studies by this laboratory, the oxidation reactions were performed in an Eppendorf tube (2 mL), under mechanical stirring (Vibrax VXR agitator) at room temperature for 24 h. The ideal molar ratio obtained for the reaction was 1 : 20 : 20 (for catalyst : oxidant : monensin A). This was achieved by adding 0.3 mmol·L^-1 : 6 mmol·L^-1 : 6 mmol·L^−1 in the 0.5 mL of reaction medium (CH2Cl2). The oxidants were m-CPBA, PhIO, t-BOOH, and H2O2. The products from monensin A oxidation were analyzed by HPLC-ESI-MS. Control reactions were carried out in the absence of catalyst under the same conditions as the catalytic runs and no products were detected.
LC-ESI-MS analyses were performed on a Varian LC-MS 1200L triple quadrupole apparatus coupled to a mass spectrometer with ESI ionization in the positive mode (Varian Medical Systems Inc., Palo Alto, CA). The chromatographic analysis was performed using an injection volume of 10 μL, sample concentration 50 μg·mL^−1 in an Xterra analytical column MS C-18 (150 × 2.1 mm, 5 μm) (Waters) and following gradient (MeOH : H2O): 0.1 min 70% MeOH, 20.0 min 98% MeOH, 21.0 min 30% MeOH, and 30.0 min 70% MeOH. The MS conditions were capillary voltage 3.2 kV, cone voltage 40 V, source temperature 40°C, and N2 desolvation temperature 350°C. The percentage of monensin A oxidation was determined by using a calibration curve of 10–100 μg·mL^−1. The resulting mass spectra were monitored over a m/z range of 610 to 800.

The subject of a further series is S. aureus ATCC 25923. Also noted: method as in PMID 23509771. The following applies: cited from earlier work.
Series [12] relates to S. epidermidis ATCC 12228. Also noted: method as in PMID 23509771. The following applies: cited from earlier work.
Setting [13] is: isolated rat liver mitochondria 1.0 mg protein·mL−1.
Where [14] appears, read: ATCC25923, S. aureus ATCC 25923, read-out: Minimal bactericidal concentration.
[15] abbreviates: ATCC27853, P. aeruginosa ATCC 27853, read-out: Minimal bactericidal concentration.
[16] abbreviates: ATCC14990, S. epidermidis ATCC 14990, read-out: Minimal bactericidal concentration.
Setting [17] is: ATCC25922, E. coli ATCC 25922, read-out: Minimal bactericidal concentration.

As for `CCC1(C2OC(C3OC(O)(CO)C(C)CC3C)CC2C)CCC(C2(C)CCC3(CC(O)C(C)C(C(C)C(O)C(C)C(=O)O)O3)O2)O1` (centres unmarked) [Product 1, 3-O-demethyl monensin A], the figures for the Minimal bactericidal concentration in series [1] (S. aureus ATCC 25923) and in [5] (S. aureus ATCC 43300 (MRSA)) were 25.0 µg/mL (≈ 38.1 µM) and 50.0 µg/mL (≈ 76.1 µM), respectively. The MBC was 25 µg/mL (≈ 38.1 µM) in [1] (ATCC25923, read-out: Minimal bactericidal concentration); > 100 µg/mL in series [2] (ATCC27853, read-out: Minimal bactericidal concentration); > 100 µg/mL in [3] (ATCC14990, read-out: Minimal bactericidal concentration); > 100 µg/mL in series [4] (ATCC25922, read-out: Minimal bactericidal concentration); 50 µg/mL (≈ 76.1 µM) in series [5]. Also, in the series on rat liver mitochondria [6], the “effect on mitochondrial membrane potential (in words)” value is given as “no effect”. Moreover, the “effect on mitochondrial ROS accumulation (in words)” value in the series on rat liver mitochondria [7] is given as “no effect”. Also, in the series with rat liver mitochondria [8], the “effect on mitochondrial respiratory parameters (in words)” value is listed as “none of these detrimental effects”. The “ADP/O (phosphorylation efficiency)” value in the series with rat liver mitochondria [8] (setting [13]) is 2.757 ± 0.09^a. Moreover, in the series on rat liver mitochondria [8] (setting [13]), the “RCR (respiratory control ratio)” value is recorded as 6.623 ± 0.27^a. Besides, the “V3 (state 3 respiration rate)” value in the series with rat liver mitochondria [8] (setting [13]) is reported as 66.363 ± 2.29^a nmol O2/mg protein/min. Besides, the “V4 (state 4 respiration rate)” value with rat liver mitochondria [8] (setting [13]) is listed as 10.02 ± 0.11^a nmol O2/mg protein/min. Also, the “effect on mitochondrial swelling (in words)” value in the series with rat liver mitochondria [9] is recorded as “no effect”. Besides, the “antimicrobial activity relative to monensin” value with Bacillus subtilis and in the series with Streptococcus faecalis was 5% throughout.

As to `CCC1(C2OC(C3OC(O)(CO)C(C)C(O)C3C)CC2C)CCC(C2(C)CCC3(CC(O)C(C)C(C(C)C(OC)C(C)C(=O)O)O3)O2)O1` (centres unmarked) [Product 2, 12-hydroxy monensin A], the Minimal bactericidal concentration in [1] (S. aureus ATCC 25923) and in series [5] (S. aureus ATCC 43300 (MRSA)) was > 100 µg/mL each time. For the same compound, the MBC in [1] (setting [14]), in series [2] (setting [15]), in series [3] (setting [16]), in series [4] (setting [17]) and in series [5] (S. aureus ATCC 43300 (MRSA)) was > 100 µg/mL throughout. Also, the “effect on mitochondrial membrane potential (in words)” value with rat liver mitochondria [6] is recorded as “no effect”. The “effect on mitochondrial ROS accumulation (in words)” value in the series on rat liver mitochondria [7] is given as “no effect”. Moreover, in the series on rat liver mitochondria [8], the “effect on mitochondrial respiratory parameters (in words)” value is on record as “none of these detrimental effects”. Further, in the series on rat liver mitochondria [8] (setting [13]), the “ADP/O (phosphorylation efficiency)” value is reported as 2.728 ± 0.06^a. Further, in the series with rat liver mitochondria [8] (setting [13]), the “RCR (respiratory control ratio)” value is reported as 6.786 ± 0.15^a. In the series on rat liver mitochondria [8] (setting [13]), the “V3 (state 3 respiration rate)” value was 66.730 ± 1.95^a nmol O2/mg protein/min. Also, the “V4 (state 4 respiration rate)” value in the series with rat liver mitochondria [8] (setting [13]) was 9.832 ± 0.07^a nmol O2/mg protein/min. The “effect on mitochondrial swelling (in words)” value with rat liver mitochondria [9] is “no effect”.

`O=C(N[C@H](CO)[C@H](O)c1ccc([N+](=O)[O-])cc1)C(Cl)Cl` [Chloramphenicol, chloramphenicol, reference compound]: the MBC in series [1] (setting [14]) worked out at 6.3 µg/mL (≈ 19.5 µM); in series [2] (setting [15]), 100 µg/mL (≈ 309 µM); in series [3] (setting [16]), 6.3 µg/mL (≈ 19.5 µM); in [4] (setting [17]), 3.1 µg/mL (≈ 9.59 µM); in series [5] (S. aureus ATCC 43300 (MRSA)) it was 8.3 µg/mL (≈ 25.7 µM).

In the case of `CC[C@@]1([C@@H]2O[C@@H]([C@H]3O[C@@](O)(CO)[C@H](C)C[C@@H]3C)C[C@@H]2C)CC[C@H]([C@]2(C)CC[C@]3(C[C@H](O)[C@@H](C)[C@@H]([C@@H](C)[C@@H](OC)[C@H](C)C(=O)O)O3)O2)O1` [Monensin A], the MBC in series [1] (setting [14]) is 3.1 µg/mL (≈ 4.62 µM); in series [2] (setting [15]) it was > 100 µg/mL; in series [3] (setting [16]), 25 µg/mL (≈ 37.3 µM); in series [4] (setting [17]), > 100 µg/mL; in [5] (S. aureus ATCC 43300 (MRSA)) it was 6.3 µg/mL (≈ 9.39 µM). Besides, the “decrease on the mitochondrial membrane potential” value in the series on rat liver mitochondria [6] (rat) came to 23.29%. Moreover, the antimicrobial activity concentration in series [10] is 5.8 µg/mL; in the series with S. aureus ATCC 25923 it was 2.9 µg/mL; in series [12], 2.9 µg/mL. In addition, the monensin conversion in series [11] (oxidant H2O2) is on record as 26%; in series [11] (oxidant PhIO), 36%; in series [11] (oxidant m-CPBA), 27%; in [11] (oxidant t-BOOH) it was 14%. Moreover, the “increase in accumulation of free radicals (ROS)” value in the series with rat liver mitochondria [7] (rat) came out at 12.14%. Besides, the “ADP/O (phosphorylation efficiency)” value in the series on rat liver mitochondria [8] (rat, pH 7.2) is 1.498 ± 0.01^b. For the same compound, in the series with rat liver mitochondria [8] (rat, pH 7.2), the “RCR (respiratory control ratio)” value is recorded as 4.548 ± 0.16^b. The “V3 (state 3 respiration rate)” value in the series with rat liver mitochondria [8] (rat, pH 7.2) is 64.097 ± 2.35^a nmol O2/mg protein/min. For the same compound, the “V4 (state 4 respiration rate)” value in the series with rat liver mitochondria [8] (rat, pH 7.2) was 14.12 ± 0.97^b nmol O2/mg protein/min. In the series with rat liver mitochondria [8] (rat, pH 7.2), the “decrease of respiratory control ratio (RCR)” value was determined as 32.59%. In the series with rat liver mitochondria [8] (rat, pH 7.2), the “increase of state 4 of oxygen consumption” value turned out to be 44.11%. For the same compound, in the series with rat liver mitochondria [8] (rat, pH 7.2), the “reduction in ADP/O” value was found to be 47.73%. Also, the “mitochondrial swelling, effect on the apparent turbidity” value in the series with rat liver mitochondria [9] (rat) came to 54.61%.
